Test results published in patent publication US20140173781A1, “METHODS AND COMPOSITIONS FOR PRODUCING AND SELECTING TRANSGENIC WHEAT PLANTS” (PIONEER HI-BRED INTERNATIONAL, INC., priority 2012, published 2014).

Experiments:
Assay type in all cases: in vivo
[1] = test system: tobacco seeds; experiment: Germination of tobacco T1 immature seeds on glyphosate medium; conditions: 20-50 μM glyphosate; transgenic and nontransgenic tobacco seeds without desiccation treatment
Experimental: (§1) T1 immature seeds from transgenic tobacco plants are isolated, sterilized with 15% Clorox+2 drops of Tween 20 and rinsed with autoclaved water 3 times. Sterilized immature seeds are placed on sterile fiber glass filter paper in a Petri dish. The Petri dish is […] and with 20-50 μM glyphosate for selection. One to 2 weeks later, DsRed expression is checked in the emerging shoots. Immature seeds that have been properly desiccated have very weak or no DsRed expression as the gene is excised via the LoxP sites. […] Immature seeds that successfully underwent gene excision by desiccation will have glyphosate resistance and regenerate on medium containing 20-50 μM glyphosate.

[2] = test system: sugarcane plants; experiment: Glyphosate spray test on sugarcane T0 plantlets; conditions: 4× glyphosate
Experimental: T0 plantlets were then moved to soil and spray tested with 4× glyphosate to confirm excision/glyphosate resistance. […] The final confirmation of stable transformation frequency is determined based on molecular analysis such as PCR and Southern blot hybridization.

[3] = test system: maize inbred PHR03 plants; experiment: Glyphosate spray test on plants germinated from T1 mature corn seed; conditions: glyphosate+surfactant at 2× or 4×
Description: Immature embryos of maize inbred PHR03 were transformed with the excision vector AGL1/PHP54353, the expression of DsRed was visually confirmed, and T0 plantlets were regenerated as described in Example 5. Before moving the T0 plantlets to soil, the expression of DsRed was again visually confirmed.
To confirm that the natural desiccation process that occurs during seed maturation would in fact allow for the excision of DsRed and resistance to glyphosate, seeds collected from T0 plants crossed with wild-type PHR03 pollen were germinated in soil. By planting seeds straight to soil without any treatments, excision would be a result of natural processes.
Three random events were chosen to be tested by this method. Five mature T1 seeds each from the following events, PHP54353 T0 event numbers 6, 7, and 10 were placed in small pots with Metro Mix soil (Sun Gro Horticulture, McFarland, Calif.) with fertilizer and placed in the greenhouse. After plants had germinated and grown to about 12-18 cm (10-12 days after planting), the plants were then sprayed with glyphosate+surfactant at 2× or 4× concentration (1× is equivalent to what is used in the field). Before spraying, all pots were evenly spaced and positioned to ensure that they would receive an even distribution of glyphosate. The distance between the sprayer nozzle and the apical meristem of the plants was approximately 18 inches. Within 10-12 days, it was visibly evident which plants were not affected by the herbicide and which plants had been severely damaged.

[4] = test system: soybean seeds; experiment: Germination of soybean T1 immature seeds on glyphosate medium; conditions: 20-50 μM glyphosate; transgenic and nontransgenic soybean seeds without desiccation treatment
Experimental: as §1, with “immature pods” for “immature seeds”, “transgenic soybean” for “transgenic tobacco”, “are harvested,” for “are isolated,”, “times. Immature” for “times. Sterilized immature”, “are isolated from sterilized pods and” for “are”, “desiccated will” for “desiccated”

O=C(O)CNCP(=O)(O)O [glyphosate, N-phosphonomethylglycine]
germination [1]: completely inhibited
Glyphosate Spray Test ([2]; independent T0 events (PHP54561, after excision) from 3 sugarcane cultivars): strong glyphosate resistance
Glyphosate Spray Test ([2]; plants of 3 nontransgenic sugarcane cultivars): completely killed
Glyphosate Spray Test ([3]; PHP54353 lab event 6 T1 plants, fraction of plants tolerant): 2/4 plants tolerant
Glyphosate Spray Test ([3]; PHP54353 lab event 7 T1 plants): 5/5 plants damaged
Glyphosate Spray Test ([3]; PHP54353 lab event 10 T1 plants): 4/4 plants damaged
Glyphosate Spray Test ([3]; PHP54353 lab event 13 T1 plants, fraction of plants tolerant): 2/5 plants tolerant
Glyphosate Spray Test ([3]; Wild-type PHR03 plants): 4/4 plants damaged
germination [4]: completely inhibited
